# Experimental data: publication PMC7156458, “Synthetic biology based construction of biological activity-related library of fungal decalin-containing diterpenoid pyrones” (Nature Communications, 2020)
# Where “and” joins values, the source holds several entries; their conditions need not be identical. Identical values can stand only once. Like-named read-outs stand apart in the source and are kept apart here.
# Assays:
# Assay type in all cases: cell-based
# [1] = tested on: MAGI cells; assay: cytotoxicity in the anti-HIV assay (CC50); details: for Cytotoxicity: single determinations; for Cytotoxicity Avg.: average of numeric determinations
# Text: (§1) We examined the inhibitory activities of DDPs against various species of bacteria (both gram-negative and gram-positive bacteria), fungi and viruses. […] In contrast, preliminary screening of the DDPs for anti-viral agents with hepatitis B virus (HBV), measles virus (MV), Epstein-Barr virus (EBV), herpes simplex virus (HSV) and human immunodeficiency virus-1 (HIV-1) indicated their selective inhibition of HIV.
# Policy information about cell lines […]
# HeLa-CD4-LTR/ !-galactosidase (MAGI) cells provided by Dr. J. Overbaugh through the NIH AIDS Research and Reference […]
# MAGI cells were authenticated by the NIH.
# Mycoplasma contamination All the cell lines tested negative for mycoplasma contamination.
# Commonly misidentified lines No commonly mis-identified cell lines. […]
# [2] = tested on: human immunodeficiency virus-1 (HIV-1); assay: anti-HIV MAGI assay; details: anti-HIV
# Text: as §1
# [3] = tested on: DL1 cells; assay: cytotoxicity in Drosophila DL1 cells; details: DL1 cells; for IC50: Drosophila melanogaster, cytotoxicity
# Description: (§2) We screened the DDPs on the Drosophila assay system for cytotoxicity, inhibitory activity of innate immune signalling and insecticidal activity. The cytotoxicity of the DDPs was evaluated using two cell lines, embryonic macrophage-derived DL1 cells[58]–[60] and larval blood cell-derived l(2)mbn cells, and their IC50 values are listed in Supplementary Table 23.
# [4] = cytotoxicity in Drosophila DL1 cells; details: Drosophila, DL1 cells (embryonic macrophage-derived), DL1 cells
# Description: as §2
# [5] = tested on: l(2)mbn cells; assay: cytotoxicity in Drosophila l(2)mbn cells; details: for Luminescence Raw1: replicate 1; for Luminescence Raw2: replicate 2; for IC50: Drosophila melanogaster, cytotoxicity
# Description: as §2
# [6] = cytotoxicity in Drosophila l(2)mbn cells; details: Drosophila, l(2)mbn cells (larval blood cell-derived)
# Description: as §2
# [7] = Human immunodeficiency virus 1, MAGI, average of numeric determinations, read-out: Avg. EC50
# [8] = average of two replicates, read-out: IC50 Average
# [9] = replicate 1, read-out: IC50 (1)
# [10] = replicate 2, read-out: IC50 (2)
# [11] = replicate 1, relative to DMSO 1%, read-out: % viability, viability 1
# [12] = replicate 2, relative to DMSO 1%, read-out: % viability, viability 2
# [13] = Human immunodeficiency virus 1, MAGI, MAGI assay, read-out: EC50
structure (smiles),measurement,setting,value
CC(C)=CCC/C(C)=C/CC/C(C)=C/CC/C(C)=C/Cc1c(O)c(C)c(C)oc1=O [Compound 2],Cytotoxicity,[1],>10 µM
same,EC50,[2]; [7],157 nM
C=C1CCC2C(C)(CCC=C(C)C)C(O)CCC2(C)C1Cc1c(OC)oc(CO)c(C)c1=O (centres unmarked) [Compound 12],Luminescence Raw1,"[3]; 0.04 µM, replicate 1",1994873
same,Luminescence Raw2,"[3]; 0.04 µM, replicate 2",2143826
same,Luminescence Raw1,"[3]; 0.2 µM, replicate 1",1779203
same,Luminescence Raw2,"[3]; 0.2 µM, replicate 2",1776317
same,Luminescence Raw1,"[3]; 1 µM, replicate 1",178477
same,Luminescence Raw2,"[3]; 1 µM, replicate 2",154679
same,Luminescence Raw1,"[3]; 4 µM, replicate 1",122950
same,Luminescence Raw2,"[3]; 4 µM, replicate 2",117902
same,Luminescence Raw1,"[3]; 10 µM, replicate 1",130161
same,Luminescence Raw2,"[3]; 10 µM, replicate 2",130882
same,Luminescence Raw1,"[3]; 20 µM, replicate 1",78962
same,Luminescence Raw2,"[3]; 20 µM, replicate 2",90500
same,IC50,[3]; [8],342 nM
same,IC50,"[3]; average±SEM, read-out: IC50",340 ± 30 nM
same,IC50,[3]; [9],371 nM
same,IC50,[3]; [10],314 nM
same,viability at 0.04 µM,[4]; [11],96.8%
same,viability at 0.04 µM,[4]; [12],104%
same,viability at 0.2 µM,[4]; [11],86.4%
same,viability at 0.2 µM,[4]; [12],86.2%
same,viability at 1 µM,[4]; [11],8.66%
same,viability at 1 µM,[4]; [12],7.51%
same,viability at 4 µM,[4]; [11],5.97%
same,viability at 4 µM,[4]; [12],5.72%
same,viability at 10 µM,[4]; [11],6.32%
same,viability at 10 µM,[4]; [12],6.35%
same,viability at 20 µM,[4]; [11],3.83%
same,viability at 20 µM,[4]; [12],4.39%
same,Luminescence Raw1,[5]; 0.04 µM,3578369
same,Luminescence Raw2,[5]; 0.04 µM,3458604
same,Luminescence Raw1,[5]; 0.2 µM,4007302
same,Luminescence Raw2,[5]; 0.2 µM,3578369
same,Luminescence Raw1,[5]; 1 µM,2865222
same,Luminescence Raw2,[5]; 1 µM,3493234
same,Luminescence Raw1,[5]; 4 µM,415037
same,Luminescence Raw2,[5]; 4 µM,331384
same,Luminescence Raw1,[5]; 10 µM,181387
same,Luminescence Raw2,[5]; 10 µM,175618
same,Luminescence Raw1,[5]; 20 µM,189320
same,Luminescence Raw2,[5]; 20 µM,161917
same,IC50,[5]; [8],3290 nM
same,IC50,"[5]; average±SEM, read-out: IC50",3290 ± 160 nM
same,IC50,[5]; [9],3130 nM
same,IC50,[5]; [10],3450 nM
same,viability at 0.04 µM,[6]; [11],139%
same,viability at 0.04 µM,[6]; [12],135%
same,viability at 0.2 µM,[6]; [11],156%
same,viability at 0.2 µM,[6]; [12],139%
same,viability at 1 µM,[6]; [11],112%
same,viability at 1 µM,[6]; [12],136%
same,viability at 4 µM,[6]; [11],16.2%
same,viability at 4 µM,[6]; [12],12.9%
same,viability at 10 µM,[6]; [11],7.07%
same,viability at 10 µM,[6]; [12],6.84%
same,viability at 20 µM,[6]; [11],7.38%
same,viability at 20 µM,[6]; [12],6.31%
same,EC50,[2]; [13],< 200 nM
C=C1CCC2C(C)(CCC=C(C)C)C(O)CCC2(C)C1Cc1c(OC)oc(CO)c(C)c1=O (centres unmarked) [Compound 16],Cytotoxicity Avg.,[1],6.65 µM
same,EC50,"[2]; average of numeric determinations, read-out: Avg. EC50",48.2 nM
same,EC50,"[2]; single determinations, read-out: Efficacy (EC50)",55.6 nM and 36.4 nM and 54.6 nM and 46.4 nM
"C=C1CC[C@@H]2[C@](C)(CC[C@H]3O[C@H](C=C(C)C)C[C@@]23C)[C@@H]1Cc1c(OC)oc(C)c(C)c1=O [Compound 22, O-methylated higginsianin A]",Cytotoxicity Avg.,[1],5.079 µM
same,Cytotoxicity,[1],5.68 µM and 5.915 µM and 3.643 µM
same,EC50,[2]; [7],143 nM
C=C1CC[C@H]2[C@]3(C)C[C@H](C=C(C)C)O[C@H]3CC[C@]2(C)[C@@H]1Cc1c(OC)oc(C)c(C)c1=O [Compound 24],Luminescence Raw1,"[3]; 0.04 µM, replicate 1",2516748
same,Luminescence Raw2,"[3]; 0.04 µM, replicate 2",2332079
same,Luminescence Raw1,"[3]; 0.2 µM, replicate 1",850222
same,Luminescence Raw2,"[3]; 0.2 µM, replicate 2",975712
same,Luminescence Raw1,"[3]; 1 µM, replicate 1",178460
same,Luminescence Raw2,"[3]; 1 µM, replicate 2",208026
same,Luminescence Raw1,"[3]; 4 µM, replicate 1",158268
same,Luminescence Raw2,"[3]; 4 µM, replicate 2",147451
same,Luminescence Raw1,"[3]; 10 µM, replicate 1",159710
same,Luminescence Raw2,"[3]; 10 µM, replicate 2",170888
same,Luminescence Raw1,"[3]; 20 µM, replicate 1",153581
same,Luminescence Raw2,"[3]; 20 µM, replicate 2",168364
same,IC50,[3]; [8],242 nM
same,IC50,"[3]; average±SEM, read-out: IC50",240 ± 10 nM
same,IC50,[3]; [9],237 nM
same,IC50,[3]; [10],248 nM
same,viability at 0.04 µM,[4]; [11],122%
same,viability at 0.04 µM,[4]; [12],113%
same,viability at 0.2 µM,[4]; [11],41.3%
same,viability at 0.2 µM,[4]; [12],47.4%
same,viability at 1 µM,[4]; [11],8.66%
same,viability at 1 µM,[4]; [12],10.1%
same,viability at 4 µM,[4]; [11],7.68%
same,viability at 4 µM,[4]; [12],7.16%
same,viability at 10 µM,[4]; [11],7.75%
same,viability at 10 µM,[4]; [12],8.3%
same,viability at 20 µM,[4]; [11],7.46%
same,viability at 20 µM,[4]; [12],8.17%
same,Luminescence Raw1,[5]; 0.04 µM,3470038
same,Luminescence Raw2,[5]; 0.04 µM,2834452
same,Luminescence Raw1,[5]; 0.2 µM,3507915
same,Luminescence Raw2,[5]; 0.2 µM,3346307
same,Luminescence Raw1,[5]; 1 µM,3332960
same,Luminescence Raw2,[5]; 1 µM,3138530
same,Luminescence Raw1,[5]; 4 µM,267094
same,Luminescence Raw2,[5]; 4 µM,217335
same,Luminescence Raw1,[5]; 10 µM,164693
same,Luminescence Raw2,[5]; 10 µM,160006
same,Luminescence Raw1,[5]; 20 µM,170462
same,Luminescence Raw2,[5]; 20 µM,154958
same,IC50,[5]; [8],3040 nM
same,IC50,"[5]; average±SEM, read-out: IC50",3040 ± 160 nM
same,IC50,[5]; [9],3200 nM
same,IC50,[5]; [10],2880 nM
same,viability at 0.04 µM,[6]; [11],135%
same,viability at 0.04 µM,[6]; [12],110%
same,viability at 0.2 µM,[6]; [11],137%
same,viability at 0.2 µM,[6]; [12],130%
same,viability at 1 µM,[6]; [11],130%
same,viability at 1 µM,[6]; [12],122%
same,viability at 4 µM,[6]; [11],10.4%
same,viability at 4 µM,[6]; [12],8.47%
same,viability at 10 µM,[6]; [11],6.42%
same,viability at 10 µM,[6]; [12],6.23%
same,viability at 20 µM,[6]; [11],6.64%
same,viability at 20 µM,[6]; [12],6.04%
same,EC50,[2]; [13],< 200 nM
